The source made the active and inactive calls.
Key:
[1] = biological target: T1, Estrogen receptor (Homo sapiens, UniProt P03372); assay: ERα coactivator recruitment enhancers – biochemical, TR-FRET, ERα LBD, dose response (AID 737)
T1 sequence (P03372 whole entry): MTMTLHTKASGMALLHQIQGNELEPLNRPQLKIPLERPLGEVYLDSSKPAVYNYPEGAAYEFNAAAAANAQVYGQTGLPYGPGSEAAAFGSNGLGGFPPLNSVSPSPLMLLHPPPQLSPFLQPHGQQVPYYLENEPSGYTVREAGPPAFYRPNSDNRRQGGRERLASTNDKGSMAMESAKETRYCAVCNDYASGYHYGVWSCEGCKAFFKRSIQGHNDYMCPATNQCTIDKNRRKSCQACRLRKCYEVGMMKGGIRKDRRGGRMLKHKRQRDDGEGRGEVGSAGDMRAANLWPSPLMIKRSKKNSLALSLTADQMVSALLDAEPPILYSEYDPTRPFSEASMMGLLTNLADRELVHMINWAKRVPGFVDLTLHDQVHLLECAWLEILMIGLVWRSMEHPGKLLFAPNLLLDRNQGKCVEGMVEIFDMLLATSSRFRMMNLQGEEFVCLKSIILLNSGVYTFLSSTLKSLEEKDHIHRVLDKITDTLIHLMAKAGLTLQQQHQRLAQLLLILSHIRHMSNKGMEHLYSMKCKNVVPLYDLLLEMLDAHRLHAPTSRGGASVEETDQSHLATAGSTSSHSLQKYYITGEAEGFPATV

[2] = biological target: Cytochrome P450 2C9 (Homo sapiens, UniProt P11712)
[3] = biological target: T2, Serine/threonine-protein phosphatase (Homo sapiens, UniProt Q9BPW0); assay: Counterscreen for inhibitors of PP1: fluorescence-based biochemical high throughput dose response assay to identify inhibitors of Protein Phosphatase 5 (PP5). [Related pubchem assays: 2034 (Summary (PP5 inhibitors)), 1987 (PP5 inhibitors in singlate), 2235 (PP1 inhibitors in singlate)]
T2 sequence (Q9BPW0 whole entry): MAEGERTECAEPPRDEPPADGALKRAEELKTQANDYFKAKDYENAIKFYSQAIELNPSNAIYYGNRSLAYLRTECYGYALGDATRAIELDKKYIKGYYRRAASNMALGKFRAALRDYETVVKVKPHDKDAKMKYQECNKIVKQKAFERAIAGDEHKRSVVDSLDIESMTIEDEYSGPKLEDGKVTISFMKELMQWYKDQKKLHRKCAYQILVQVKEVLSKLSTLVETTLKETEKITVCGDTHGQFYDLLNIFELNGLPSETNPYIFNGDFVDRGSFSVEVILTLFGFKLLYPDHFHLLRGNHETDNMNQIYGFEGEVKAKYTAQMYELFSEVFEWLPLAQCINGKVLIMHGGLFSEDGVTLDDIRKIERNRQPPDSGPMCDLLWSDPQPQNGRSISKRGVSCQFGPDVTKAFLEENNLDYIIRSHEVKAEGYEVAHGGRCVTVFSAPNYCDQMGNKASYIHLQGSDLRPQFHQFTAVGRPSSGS

[4] = biological target: T3, Aspartyl aminopeptidase (Plasmodium falciparum 3D7, UniProt Q8I2J3)
T3 sequence (Q8I2J3 whole entry): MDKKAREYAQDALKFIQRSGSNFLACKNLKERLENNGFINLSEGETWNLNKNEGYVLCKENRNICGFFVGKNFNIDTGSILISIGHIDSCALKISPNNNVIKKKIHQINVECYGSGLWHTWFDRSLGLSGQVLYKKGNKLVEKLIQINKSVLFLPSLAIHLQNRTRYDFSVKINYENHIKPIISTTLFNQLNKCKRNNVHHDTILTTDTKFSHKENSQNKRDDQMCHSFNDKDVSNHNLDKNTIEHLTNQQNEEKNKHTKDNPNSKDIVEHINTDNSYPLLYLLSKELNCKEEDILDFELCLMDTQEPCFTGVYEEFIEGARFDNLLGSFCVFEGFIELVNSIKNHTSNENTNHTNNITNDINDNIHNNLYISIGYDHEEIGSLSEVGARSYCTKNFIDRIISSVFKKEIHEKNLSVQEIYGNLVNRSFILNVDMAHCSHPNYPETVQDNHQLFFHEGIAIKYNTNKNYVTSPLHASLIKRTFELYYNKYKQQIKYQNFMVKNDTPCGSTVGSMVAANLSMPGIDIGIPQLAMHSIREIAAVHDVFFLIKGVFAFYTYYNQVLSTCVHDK

[5] = biological target: Procathepsin L (Homo sapiens, UniProt P07711)
[6] = tested on: H9c2; assay: cells; assay type: functional, cell-based; conditions: Rattus norvegicus, H9c2, Myocardium;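 further: confirmatory concentration-response retest of ultra-high-throughput screening hits for modulation of myocardial damage; cell death induced by hydrogen peroxide oxidative stress; compound pretreatment for 60 min then peroxide exposure for 2 h; potency is for protecting the cells against peroxide damage rather than for killing them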
[7] = biological target: Neurotensin receptor type 1 (Homo sapiens, UniProt P30989); assay type: functional;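 further: Image-based confirmatory dose-response assay measuring agonist activity at NTR1; NTR1-expressing U2OS osteosarcoma cells imaged for beta-arrestin GFP spot formation; agonist potency where compounds increase beta-arrestin recruitment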
[8] = tested on: Streptococcus sp. 'group A'; assay: Streptococcus pyogenes SK(-)GAS viability under kanamycin – luminescence, BacTiterGlo, confirmation, counter-screen for streptokinase expression inhibitor project, dose response (AID 1900); assay type: functional, organism-based
[9] = biological target: T4, Streptokinase A (Streptococcus pyogenes serotype M1, UniProt P10520); assay: viability-normalized secreted streptokinase activity reduction – plasminogen activation absorbance, OD405, dose response (AID 1914); assay type: functional, Streptococcus pyogenes M1 GAS;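 further: secreted streptokinase activity via plasminogen activation per viability signal from cell pellet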
T4 sequence (P10520 whole entry): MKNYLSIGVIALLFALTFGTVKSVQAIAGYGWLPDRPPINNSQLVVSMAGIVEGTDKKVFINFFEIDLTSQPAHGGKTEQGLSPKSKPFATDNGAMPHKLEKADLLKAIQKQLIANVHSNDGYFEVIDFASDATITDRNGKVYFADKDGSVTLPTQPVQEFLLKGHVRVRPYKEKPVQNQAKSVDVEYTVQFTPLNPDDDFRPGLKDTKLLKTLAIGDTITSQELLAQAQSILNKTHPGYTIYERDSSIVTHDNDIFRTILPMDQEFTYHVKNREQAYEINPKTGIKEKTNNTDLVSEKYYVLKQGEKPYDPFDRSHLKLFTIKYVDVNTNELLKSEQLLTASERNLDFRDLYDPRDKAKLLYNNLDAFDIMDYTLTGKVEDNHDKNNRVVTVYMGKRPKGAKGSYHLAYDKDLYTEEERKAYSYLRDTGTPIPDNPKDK

[10] = antiviral protection against BTV-induced cell death – arbovirus, BSR cells, confirmation (AID 1250); assay type: functional;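 further: protection from viral cytopathic effect measured as cell viability by ATP luminescence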
[11] = biological target: Induced myeloid leukemia cell differentiation protein Mcl-1 (Homo sapiens, UniProt Q07820); assay type: functional
[12] = tested on: Streptococcus; assay: GAS UMAA2166 growth inhibition – luminescence, BacTiterGlo, counter-screen for streptokinase expression inhibitor project, dose response (AID 1915); assay type: functional, organism-based;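 further: potency for reduction of bacterial viability or growth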
[13] = biological target: T5, Fatty acid synthase (Homo sapiens, UniProt P49327); assay: inhibition of human FAS-TE enzyme activity – biochemical, endpoint fluorescence intensity, uHTS hits, dose response (AID 624327); assay type: functional;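 further: fluorescence from hydrolysis of an O-methyl fluorescein acyl ester substrate by the enzyme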
[14] = biological target: T5, Fatty acid synthase; assay: inhibition of human FAS-TE enzyme activity – biochemical, kinetic fluorescence intensity, dose response (AID 624326); assay type: functional;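 further: rate of fluorescence rise from hydrolysis of a fluorogenic O-methyl fluorescein ester substrate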
[15] = HPDE-C7 pancreatic duct cell viability loss – fluorescence, HTS (AID 430); assay type: functional, cell-based; conditions: Homo sapiens
[16] = viability loss of HPDE-C7K cells – cell-based, fluorescence, HTS, primary screen (AID 431); assay type: functional; conditions: Homo sapiens
[17] = biological target: Prothrombin (Homo sapiens, UniProt P00734); assay: Thrombin 1536 HTS Dose Response Confirmation. [Related pubchem assays: 1046 (Thrombin 1536 HTS; hits were confirmed in this assay)]; assay type: functional
[18] = biological target: T6, Coagulation factor XII (Homo sapiens, UniProt P00748); assay type: functional;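 further: activated factor XIIa alpha cleaving a fluorogenic AMC peptide substrate; inhibitor potency from loss of enzyme activity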
T6 sequence (P00748 whole entry): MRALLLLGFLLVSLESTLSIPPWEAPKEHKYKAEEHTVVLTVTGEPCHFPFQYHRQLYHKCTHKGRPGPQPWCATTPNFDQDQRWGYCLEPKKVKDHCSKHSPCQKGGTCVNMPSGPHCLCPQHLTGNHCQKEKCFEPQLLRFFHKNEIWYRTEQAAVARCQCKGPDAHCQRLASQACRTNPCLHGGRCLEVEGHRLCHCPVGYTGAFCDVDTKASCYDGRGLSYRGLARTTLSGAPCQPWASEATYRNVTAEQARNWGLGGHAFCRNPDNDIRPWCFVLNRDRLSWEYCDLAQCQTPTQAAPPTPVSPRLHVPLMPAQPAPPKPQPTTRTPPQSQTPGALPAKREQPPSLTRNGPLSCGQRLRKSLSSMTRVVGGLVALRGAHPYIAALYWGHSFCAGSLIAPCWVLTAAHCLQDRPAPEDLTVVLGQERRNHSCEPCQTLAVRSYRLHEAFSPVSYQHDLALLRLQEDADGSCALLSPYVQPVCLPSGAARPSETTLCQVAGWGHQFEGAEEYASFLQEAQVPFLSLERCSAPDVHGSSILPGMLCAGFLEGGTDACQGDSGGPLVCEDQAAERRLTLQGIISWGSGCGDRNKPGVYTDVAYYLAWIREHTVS

[19] = tested on: Vero; assay: viability of Vero cells under compound – cytotoxicity control for flavivirus capping enzyme inhibitors (AID 588742); assay type: functional; conditions: Chlorocebus sabaeus
[20] = biological target: Genome polyprotein (dengue virus type 2, UniProt P29990); assay: flavivirus cap methylation enzyme inhibition – biochemical, confirmation dose response, primary screen (AID 588689); assay type: functional
[21] = biological target: T7, Probable nicotinate-nucleotide adenylyltransferase (Staphylococcus aureus (strain N315), UniProt P65502); assay type: functional, Staphylococcus aureus subsp. aureus N315;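 on IC50 Mean: confirmatory dose-response retesting of NadD inhibitor hits first found in an ultra-high-throughput screen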
[22] = biological target: T7, Probable nicotinate-nucleotide adenylyltransferase; assay type: functional, Staphylococcus aureus subsp. aureus N315; conditions: read-out: IC50_Mean
[23] = biological target: Cytochrome P450 2D6 (Homo sapiens, UniProt P10635);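 further: CYP2D6 member of a cytochrome P450 panel assay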
Chain of Cytochrome P450 2D6 (P10635 whole entry): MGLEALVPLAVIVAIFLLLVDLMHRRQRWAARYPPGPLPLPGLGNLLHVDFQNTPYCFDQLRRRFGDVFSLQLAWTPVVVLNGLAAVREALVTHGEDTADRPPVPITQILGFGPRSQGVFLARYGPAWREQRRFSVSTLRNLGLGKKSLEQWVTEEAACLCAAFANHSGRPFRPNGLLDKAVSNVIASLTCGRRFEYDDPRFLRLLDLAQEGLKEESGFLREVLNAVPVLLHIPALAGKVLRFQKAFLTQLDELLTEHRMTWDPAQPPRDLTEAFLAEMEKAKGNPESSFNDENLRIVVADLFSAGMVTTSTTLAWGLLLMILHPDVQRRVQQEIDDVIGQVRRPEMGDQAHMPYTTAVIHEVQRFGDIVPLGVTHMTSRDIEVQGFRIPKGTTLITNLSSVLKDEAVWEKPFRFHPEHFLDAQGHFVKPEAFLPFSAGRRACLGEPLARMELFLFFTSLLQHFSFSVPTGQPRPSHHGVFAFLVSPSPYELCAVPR

T5 sequence (P49327 whole entry): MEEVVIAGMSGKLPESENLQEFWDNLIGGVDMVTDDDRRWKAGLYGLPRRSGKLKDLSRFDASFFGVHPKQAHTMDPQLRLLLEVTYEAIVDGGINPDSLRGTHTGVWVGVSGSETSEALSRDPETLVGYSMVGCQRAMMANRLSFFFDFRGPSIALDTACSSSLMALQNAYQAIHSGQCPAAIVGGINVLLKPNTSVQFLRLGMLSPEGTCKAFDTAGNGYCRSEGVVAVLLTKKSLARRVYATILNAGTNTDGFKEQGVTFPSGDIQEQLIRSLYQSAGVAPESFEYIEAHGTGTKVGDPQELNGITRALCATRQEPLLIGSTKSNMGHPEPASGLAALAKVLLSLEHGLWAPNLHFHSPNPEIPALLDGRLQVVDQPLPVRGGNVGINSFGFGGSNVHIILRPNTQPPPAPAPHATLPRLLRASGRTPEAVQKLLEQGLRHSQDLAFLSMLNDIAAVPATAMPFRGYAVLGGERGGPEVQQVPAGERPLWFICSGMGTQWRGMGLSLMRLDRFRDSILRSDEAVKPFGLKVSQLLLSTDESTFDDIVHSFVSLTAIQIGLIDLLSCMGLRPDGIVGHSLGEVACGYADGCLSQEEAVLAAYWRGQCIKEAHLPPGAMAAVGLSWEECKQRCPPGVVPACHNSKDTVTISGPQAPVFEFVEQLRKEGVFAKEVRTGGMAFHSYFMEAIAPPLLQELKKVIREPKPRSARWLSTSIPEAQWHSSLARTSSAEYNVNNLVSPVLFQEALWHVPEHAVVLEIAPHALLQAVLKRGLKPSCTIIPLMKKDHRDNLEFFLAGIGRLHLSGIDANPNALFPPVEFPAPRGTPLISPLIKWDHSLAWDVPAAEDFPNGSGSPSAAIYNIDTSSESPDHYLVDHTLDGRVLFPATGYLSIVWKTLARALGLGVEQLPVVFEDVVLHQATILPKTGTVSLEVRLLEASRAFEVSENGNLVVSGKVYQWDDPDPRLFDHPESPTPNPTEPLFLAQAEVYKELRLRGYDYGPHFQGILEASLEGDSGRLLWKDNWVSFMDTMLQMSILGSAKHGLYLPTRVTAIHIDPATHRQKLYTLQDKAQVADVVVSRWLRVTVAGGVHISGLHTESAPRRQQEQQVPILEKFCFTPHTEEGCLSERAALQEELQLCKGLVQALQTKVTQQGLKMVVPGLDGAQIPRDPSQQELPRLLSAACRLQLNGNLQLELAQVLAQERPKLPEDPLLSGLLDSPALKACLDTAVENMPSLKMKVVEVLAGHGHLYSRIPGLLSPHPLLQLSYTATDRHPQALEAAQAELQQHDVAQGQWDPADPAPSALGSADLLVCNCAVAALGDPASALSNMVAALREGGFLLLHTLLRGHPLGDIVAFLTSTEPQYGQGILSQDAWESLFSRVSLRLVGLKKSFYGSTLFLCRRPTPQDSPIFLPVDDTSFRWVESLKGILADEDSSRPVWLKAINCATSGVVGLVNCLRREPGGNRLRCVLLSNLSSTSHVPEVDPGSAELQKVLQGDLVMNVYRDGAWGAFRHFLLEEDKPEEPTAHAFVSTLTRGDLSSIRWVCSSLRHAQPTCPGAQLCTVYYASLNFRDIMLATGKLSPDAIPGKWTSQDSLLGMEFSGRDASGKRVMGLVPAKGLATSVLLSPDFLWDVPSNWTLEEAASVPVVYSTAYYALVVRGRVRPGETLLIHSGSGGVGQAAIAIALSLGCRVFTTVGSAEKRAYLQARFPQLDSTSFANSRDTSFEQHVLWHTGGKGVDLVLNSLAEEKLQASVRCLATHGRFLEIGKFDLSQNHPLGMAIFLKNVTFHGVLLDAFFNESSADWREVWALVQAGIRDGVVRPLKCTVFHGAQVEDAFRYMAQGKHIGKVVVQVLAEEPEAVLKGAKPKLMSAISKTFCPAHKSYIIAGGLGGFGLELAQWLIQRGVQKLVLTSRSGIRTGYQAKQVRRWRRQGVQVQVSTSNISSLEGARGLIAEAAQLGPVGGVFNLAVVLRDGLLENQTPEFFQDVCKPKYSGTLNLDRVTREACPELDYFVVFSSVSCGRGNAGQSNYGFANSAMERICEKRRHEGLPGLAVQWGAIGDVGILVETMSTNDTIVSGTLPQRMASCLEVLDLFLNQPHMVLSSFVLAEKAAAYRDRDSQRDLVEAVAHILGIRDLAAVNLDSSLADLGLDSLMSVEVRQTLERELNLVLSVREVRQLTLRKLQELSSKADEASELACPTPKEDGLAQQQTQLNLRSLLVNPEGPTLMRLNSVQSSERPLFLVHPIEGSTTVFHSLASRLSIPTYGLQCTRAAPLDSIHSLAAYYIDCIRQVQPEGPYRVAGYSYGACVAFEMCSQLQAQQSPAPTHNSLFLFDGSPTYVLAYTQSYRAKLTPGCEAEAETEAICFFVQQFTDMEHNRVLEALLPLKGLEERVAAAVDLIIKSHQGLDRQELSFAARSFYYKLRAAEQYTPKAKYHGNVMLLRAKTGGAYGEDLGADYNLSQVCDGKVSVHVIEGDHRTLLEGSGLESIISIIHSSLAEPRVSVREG
T7 sequence (P65502 whole entry): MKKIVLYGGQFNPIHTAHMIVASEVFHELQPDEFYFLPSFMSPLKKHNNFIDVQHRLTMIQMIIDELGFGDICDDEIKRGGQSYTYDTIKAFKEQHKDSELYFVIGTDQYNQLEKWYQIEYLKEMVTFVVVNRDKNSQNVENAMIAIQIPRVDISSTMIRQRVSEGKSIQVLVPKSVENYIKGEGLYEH
Chain of Genome polyprotein (P29990 2492-3391 limits assumed): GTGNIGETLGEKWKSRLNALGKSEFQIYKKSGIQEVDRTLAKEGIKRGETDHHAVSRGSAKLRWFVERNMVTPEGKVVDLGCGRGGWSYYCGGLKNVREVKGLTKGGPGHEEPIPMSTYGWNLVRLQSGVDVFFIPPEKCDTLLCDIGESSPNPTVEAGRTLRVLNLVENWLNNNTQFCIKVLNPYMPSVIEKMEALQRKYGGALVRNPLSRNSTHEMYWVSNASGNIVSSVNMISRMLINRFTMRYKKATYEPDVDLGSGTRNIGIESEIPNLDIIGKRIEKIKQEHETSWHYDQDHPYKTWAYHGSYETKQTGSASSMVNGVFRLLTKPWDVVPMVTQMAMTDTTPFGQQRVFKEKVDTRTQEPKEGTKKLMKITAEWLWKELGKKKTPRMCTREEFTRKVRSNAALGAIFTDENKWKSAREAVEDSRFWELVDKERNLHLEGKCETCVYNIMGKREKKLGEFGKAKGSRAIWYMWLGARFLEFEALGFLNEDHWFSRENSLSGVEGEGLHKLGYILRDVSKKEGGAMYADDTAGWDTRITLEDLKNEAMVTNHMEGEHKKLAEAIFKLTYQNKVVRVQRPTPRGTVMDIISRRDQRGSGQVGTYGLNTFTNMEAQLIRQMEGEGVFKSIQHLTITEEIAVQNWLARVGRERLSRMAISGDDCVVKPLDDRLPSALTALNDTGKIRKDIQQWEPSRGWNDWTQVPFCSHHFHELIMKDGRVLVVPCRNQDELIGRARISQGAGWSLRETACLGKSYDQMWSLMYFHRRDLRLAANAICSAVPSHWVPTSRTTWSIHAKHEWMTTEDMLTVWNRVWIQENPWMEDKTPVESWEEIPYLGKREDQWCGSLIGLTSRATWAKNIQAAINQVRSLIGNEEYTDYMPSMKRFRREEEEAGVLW
Chain of Cytochrome P450 2C9 (P11712 whole entry): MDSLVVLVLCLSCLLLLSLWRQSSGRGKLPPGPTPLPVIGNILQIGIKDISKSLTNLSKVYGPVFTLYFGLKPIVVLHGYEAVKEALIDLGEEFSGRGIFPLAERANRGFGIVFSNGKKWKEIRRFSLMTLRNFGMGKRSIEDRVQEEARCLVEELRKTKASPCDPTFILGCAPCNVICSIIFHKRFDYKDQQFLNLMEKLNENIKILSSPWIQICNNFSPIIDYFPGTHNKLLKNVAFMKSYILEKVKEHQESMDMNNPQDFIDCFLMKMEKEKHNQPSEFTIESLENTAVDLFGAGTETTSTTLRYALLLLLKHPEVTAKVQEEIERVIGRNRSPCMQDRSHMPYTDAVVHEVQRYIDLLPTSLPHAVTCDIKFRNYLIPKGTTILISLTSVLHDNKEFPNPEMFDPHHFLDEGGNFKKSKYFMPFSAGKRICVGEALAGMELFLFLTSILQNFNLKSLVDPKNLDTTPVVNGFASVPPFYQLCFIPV
Chain of Procathepsin L (P07711 whole entry): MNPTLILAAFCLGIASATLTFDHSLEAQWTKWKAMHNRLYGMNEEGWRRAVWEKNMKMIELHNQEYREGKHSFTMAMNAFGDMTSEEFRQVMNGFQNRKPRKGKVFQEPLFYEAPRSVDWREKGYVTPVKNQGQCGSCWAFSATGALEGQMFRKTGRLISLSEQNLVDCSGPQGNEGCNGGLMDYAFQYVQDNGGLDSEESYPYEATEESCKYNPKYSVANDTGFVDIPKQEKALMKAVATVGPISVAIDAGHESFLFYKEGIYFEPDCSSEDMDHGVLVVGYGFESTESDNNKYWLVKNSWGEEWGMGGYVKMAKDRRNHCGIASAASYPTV

With Cc1ccc(S(=O)(=O)NCCn2c(C)cc3ccccc32)cc1 the EC50 [1] was 28.7 µM (active) and the AC50 [2] was 3.55 µM (inconclusive).
In the case of O=C1OC(=O)C2C1[C@@H]1CC[C@H]2O1 (stereo not given in full), the IC50 [3] is reported as 3.06 µM (active).
With O=C(NC1(C(F)(F)F)Oc2ccccc2O1)N1CCC2(CC1)OCCO2 the IC50 [4] was 2.78 µM (active) and the IC50 [5] was > 59.6 µM (not active).
For Cc1ccc(-c2nn3c(C)nnc3s2)cc1NC(=O)COc1ccc(Cl)cc1, the EC50 [1] was 17.2 µM (active) and the IC50 [6] was > 79 µM (inactive).
In the case of CCOc1ccc(Br)cc1S(=O)(=O)Nc1ccccc1N1CCOCC1, the EC50 [7] is reported as > 40 µM (inactive).
For COc1ccc(C(=O)O)cc1NC(=S)NC(=O)c1ccc(-c2ccc(Cl)cc2)o1, the EC50 [8] was 5.27 µM (active), the EC50 [9] was 23.8 µM (inconclusive) and the IC50 [10] was 27.1 µM (active). The IC50 [11] was 7.13 µM (not active), the EC50 [12] was > 150 µM (not active) and the IC50 [13] was 7.33 µM (active). For the same compound, the IC50 [14] was 7.5 µM (active).
With O=C(Oc1cccc2cccnc12)c1cccs1 the EC50 [15] was 3.46 µM (active) and the EC50 [16] was 4.38 µM (active).
In the case of NC(=O)/C(=N\OC(=O)c1ccco1)c1nc(-c2ccc(Br)cc2)cs1, the IC50 [17] is reported as 0.925 µM (active), the IC50 [10] is reported as 34.3 µM (active) and the IC50 [18] is reported as 21 µM (active). For the same compound, the CC50 [19] was > 40 µM (active), the IC50 [20] was 40.8 µM (active) and the IC50 [21] was 7.32 µM (active). The IC50 [22] was 29.2 µM (active) and the AC50 [23] was 25.1 µM (inconclusive).

— ChEMBL document CHEMBL1201862, “PubChem BioAssay data set” (2004)
